Among the data in patent publication US9505792B2, “Forms of cidofovir” (Johnson Matthey Public Limited Company, priority 2011, dated 2016) are OEL values, retold here.

Structures are written as SMILES.

The nature of the series: Occupational exposure assessment (full monograph) of the final product. The following applies: final crystalline cidofovir dihydrate product; remains within category band 5 (safebridge category 3). The text has this: A full monograph for the final crystalline cidofovir dihydrate product (compound 9) has been completed and it was confirmed that, with an OEL of 0.6 μgm^−3, the product remains within category band 5 (safebridge category 3).

As to `Nc1ccn(C[C@@H](CO)OCP(=O)(O)O)c(=O)n1` [compound 9, cidofovir dihydrate], the OEL was found to be 0.6 μgm^−3.
